# “Also recorded” adds a separate entry of the source.
# Legend:
# [1] = test system: non-LAB isolates (strains of Staphylococcus, Enterobacter, Bacillus, Clostridium); test: Inhibitory activity spectrum, culture supernatant spotted on indicator bacterial lawns (non-LAB isolates); type: cell-based
# Protocol: (§1) In the discovery of the unique broad spectrum bacteriocin of this invention, indigenous LAB were isolated and purified from the fermentation mash of the commercial ethanol fermentation plants. The identities of the isolates were determined to the species level based on their 16s rDNA sequences. The capability of the isolated LAB strains to produce antimicrobial compounds was identified. Culture supernatants of the strains to be tested were spotted onto individual indicator bacterial culture lawns, which were prepared using a variety of LAB strains of different genera. After incubation, growth inhibition of the indicator bacteria was seen as a clear zone at and around the spotting position. Any positive activity of bacterial growth inhibition from the tested culture supernatant was confirmed again in the same manner, and the inhibitory activity spectrum of the antimicrobial compound is determined. […]
# (§2) The inhibitory activity spectrum of GP15cin against different strains was determined. The active concentration range and the minimum inhibition concentration of the bacteriocin are determined using different indicator strains. The activity levels of the bacteriocin present in the raw bacterial culture supernatants and/or in partially purified mixtures were also determined. […]
# [2] = test system: Lactobacillus fermentum strain 0315-25; test: Batch culture growth inhibition, bacteriocin and/or phage, growth monitored 24 h; type: cell-based
# Protocol: Bacteriocin alone, bacteriophage alone, and bacteriocin combined with phage were tested against Lactobacillus in batch culture systems. To be specific, logarithmic growth phase cultures of Lactobacillus fermentum strain 0315-25 (OD600 being 0.1) were treated either with single agent at different doses, such as bacteriocin GP15cin alone at different doses (0.1%, 1%, and 10%, v/v), or a phage designated herein as LferInf alone at different MOIs (0.1, 1, and 10), or two agents combined together at different doses, such as 0.1% GP15cin plus LferInf at MOI of 0.1, 0.1% GP15cin plus phage LferInf at MOI of 1, 1% GP15cin plus LferInf at MOI of 0.1, and 1% GP15cin plus phage LferInf at MOI of 1. Culture without any treatment was served as control. LferInf is a bacteriophage isolated from wastewater and found to be effective against a broad host range of Lactobacillus and described in more detail below. The growth of bacteria was monitored for 24 h, and the treatment effects were compared.
# [3] = Bacteriocin stability at different temperatures and pH values; type: physicochemical
# Protocol: Either using crude, partially or completely purified form, the chemical characteristics of the bacteriocins can be determined. The determined characteristics include their sensitivities to different enzymes, stability at different temperatures and pH values, etc. Sensitivity of the bacteriocin to proteolytic and lipolytic enzymes, such as trypsin, pepsin, pronase, lipase, etc, was tested. The proteinaceus nature of GP15cin was confirmed. […] The same bacteriocin has optimal activity in the pH range of 4-10.
# [4] = test system: indigenous contaminating bacteria in ethanol fermentation mash; test: Reduction of indigenous contaminating bacterial level in fermentation mash from commercial ethanol plants; type: cell-based; conditions: crude form
# Protocol: The inhibitory activity spectrum of GP15cin against different strains was determined. The active concentration range and the minimum inhibition concentration of the bacteriocin are determined using different indicator strains. The activity levels of the bacteriocin present in the raw bacterial culture supernatants and/or in partially purified mixtures were also determined. […] FIG. 2 to FIG. 11 show the effectiveness of GP15cin in reducing the total levels of indigenous bacteria presented in fermentation mash from different commercial ethanol plants. The exact identities of the indigenous bacteria population in different plants are unknown and are likely highly diverse.
# GP15cin described herein were produced by a L. plantarum strain, which was isolated from the indigenous LAB populations present during commercial ethanol fermentation. GP15cin can act towards species and/or strains of similar indigenous LAB populations and thus can be used as an effective control for contaminating LAB. […] Either fermentor or mash cooler mash samples were collected from 6 different commercial ethanol plants on 13 different days from 2012 to 2014. Results of 15 independent tests are shown. […] It is likely that the effects on controlling contaminating bacteria and acids will be even more significant if a higher dose of GP5cin is used. […]
# contaminating LAB = test: Lactic and acetic acid levels in laboratory-scale ethanol fermentation; type: cell-based
# Source text: GP15cin described herein were produced by a L. plantarum strain, which was isolated from the indigenous LAB populations present during commercial ethanol fermentation. GP15cin can act towards species and/or strains of similar indigenous LAB populations and thus can be used as an effective control for contaminating LAB. […] Either fermentor or mash cooler mash samples were collected from 6 different commercial ethanol plants on 13 different days from 2012 to 2014. Results of 15 independent tests are shown. […] It is likely that the effects on controlling contaminating bacteria and acids will be even more significant if a higher dose of […] is used. The presented results highlight the feasibility of GP15cin application for control of unwanted bacteria in ethanol and other biofuel industries.
# [5] = test system: LAB isolates from commercial ethanol plants (Lactobacillus, Lactococcus, Weissella, Leuconostoc, Pediococcus, Enterococcus, Streptococcus); test: Inhibitory activity spectrum, culture supernatant spotted on indicator bacterial lawns (LAB isolates); type: cell-based, lactic acid bacteria; conditions: multiple genera
# Protocol: as §1, §2
# [6] = test system: production host Lactobacillus plantarum GP15; test: Activity against own production host; type: cell-based
# Source text: As noted above, GP-15cin may be applied alone or in combination with other bacteriocin and/or bacteriophage virulent for unwanted bacteria in the same system. Bacteriocin producing hosts are immune to the bacteriocins produced by themselves. GP-15cin is therefore not active against its own production host, GP15cin. […] Therefore, it is desirable to combine GP-15cin with a different bacteriocin in a cocktail that will kill the bacteria insensitive to GP15cin. Additionally, GP-15cin may be combined with other antimicrobial agents to broaden the scope of effectiveness against the range of unwanted bacteria that are targeted. For example, the combination of bacteriocin and bacteriophage (phage) ensures a broader inhibition spectrum and more efficient control of the bacteria contamination. Phage targeting these non-sensitive strains can be isolated, and be combined with the bacteriocin for a complete control of contaminating bacteria.
substance,measurement,setting,value
plantaricin W [GP15cin],killing activity against non-LAB isolates,[1],showed killing activity
same,growth of L. fermentum,[2]; GP15cin alone 0.1% v/v,"all treatment, except GP15cin used at 0.1%, suppressed the growth"
same,growth of L. fermentum,[2]; GP15cin alone 1% v/v,suppressed the growth
same,growth of L. fermentum,[2]; GP15cin alone 10% v/v,suppressed the growth
same,pH range of optimal activity,[3],4-10 pH
same,loss of activity (heat resistance),[3]; after 2 hours at 120° C.,not a complete loss of activity
same,loss of activity,[3]; pH 12,complete loss of activity
same,reduction in activity,"[3]; pH values of 1, 2, 3, and 11",50%
same,reduction in activity,[3]; temperature of 120° C.,87.5%
same,reduction in activity,[3]; temperatures of 65-100° C.,50%
same,time in which the reduction effect was seen,[4],≥ 2 h
same,reduction of indigenous contaminating bacteria levels,"[4]; mash samples from 6 plants, 15 independent tests",consistent reduction effects seen in all tests; also recorded: reduced indigenous contaminating bacteria levels in all mash samples
same,lactic acid and acetic acid levels produced by contaminating LAB,contaminating LAB,significantly reduced
same,killing activity against LAB isolates,[5],broad range killing activity; also recorded: extremely broad killing spectrum
same,activity against own production host,[6],not active

# Reference: patent US20180014546A1, “Broad Spectrum Bacteriocin for Control of Unwanted Bacteria” (priority 2013, published 2018)
